The results in this text go back to patent publication US11427548B2 (Arvinas Operations, Inc., priority 2015, dated 2022).

This experiment deals with T1, Androgen Receptor (Homo sapiens, UniProt P10275).
T1 construct: endogenous in cells; host or cells: VCaP cells
T1 sequence (P10275 1-920): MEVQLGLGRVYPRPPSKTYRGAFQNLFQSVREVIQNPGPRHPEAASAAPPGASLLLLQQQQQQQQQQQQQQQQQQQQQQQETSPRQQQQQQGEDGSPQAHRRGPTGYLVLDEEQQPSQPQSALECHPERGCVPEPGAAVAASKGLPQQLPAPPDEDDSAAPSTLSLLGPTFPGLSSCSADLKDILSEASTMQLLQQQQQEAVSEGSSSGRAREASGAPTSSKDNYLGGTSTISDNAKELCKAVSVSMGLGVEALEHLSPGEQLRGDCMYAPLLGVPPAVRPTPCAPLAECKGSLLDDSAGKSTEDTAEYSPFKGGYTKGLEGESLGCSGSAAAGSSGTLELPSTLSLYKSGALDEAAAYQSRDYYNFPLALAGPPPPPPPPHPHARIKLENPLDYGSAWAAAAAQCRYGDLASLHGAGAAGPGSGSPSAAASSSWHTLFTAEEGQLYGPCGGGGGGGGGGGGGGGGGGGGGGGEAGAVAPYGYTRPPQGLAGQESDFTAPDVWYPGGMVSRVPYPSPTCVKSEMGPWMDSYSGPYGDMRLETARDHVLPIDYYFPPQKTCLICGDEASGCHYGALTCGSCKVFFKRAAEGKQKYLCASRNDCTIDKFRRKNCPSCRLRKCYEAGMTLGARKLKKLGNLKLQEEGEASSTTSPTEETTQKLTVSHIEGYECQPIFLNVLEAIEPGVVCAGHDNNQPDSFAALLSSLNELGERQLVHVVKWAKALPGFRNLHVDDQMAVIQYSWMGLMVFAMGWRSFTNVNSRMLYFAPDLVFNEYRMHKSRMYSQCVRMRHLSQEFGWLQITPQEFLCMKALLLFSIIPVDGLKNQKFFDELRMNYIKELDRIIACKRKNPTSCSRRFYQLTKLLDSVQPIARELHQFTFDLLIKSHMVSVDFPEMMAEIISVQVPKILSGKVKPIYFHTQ
Briefly: Androgen Receptor ELISA assay (PathScan AR ELISA) in VCaP cells: AR degradation, Dmax and DC50. It counts as cell-based. The gist of the method:
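VCaP cells, 30,000/well, grown ≥3 days in phenol red-free RPMI with 5% charcoal-stripped FBS; compound added in 0.1% DMSO with 0.1 nM R1881, 7 half-log doses, 24 h. Lysate AR quantified by PathScan sandwich ELISA, HRP/TMB read at 450 nm, giving DC50 and Dmax.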
In general terms: ELISA stands for enzyme-linked immunosorbent assay.

Where [1] appears, read: VCaP cells; Table 36; read-out: VCaP DC50.
Setting [2] is: VCaP, VCaP cells; Table 36; read-out: VCaP Dmax (%).
[3] abbreviates: VCaP, read-out: VCaP Dmax (%), VCaP cells; Table 36.
Where [4] appears, read: read-out: VCaP DC50; VCaP cells; Table 36.

Read-outs that look alike come from different tables or passages of the source.

Broadly, the DC50 is the concentration giving 50% degradation. As a reminder, the Dmax is the greatest extent of degradation seen. As for `Cc1ncsc1-c1ccc([C@H](C)NC(=O)[C@@H]2C[C@@H](O)CN2C(=O)[C@@H](c2cc(OCCN3CCN(c4ccc(C(=O)N[C@H]5C(C)(C)[C@H](Oc6ccc(C#N)c(Cl)c6)C5(C)C)cn4)CC3)no2)C(C)C)cc1` [Example 659, N-((1r,3r)-3-(3-chloro-4-cyanophenoxy)-2,2,4,4-tetramethylcyclobutyl)-6-(4-(2-((5-((R)-1-((2S,4R)-4-hydroxy-2-(((S)-1-(4-(4-methylthiazol-5-yl)phenyl)ethyl)carbam-oyl)pyrrolidin-1-yl)-3-methyl-1-oxobutan-2-yl)isoxazol-3-yl)oxy)ethyl)piperazin-1-yl)nicotinamide], the DC50 under setting [1] is below 50 nM. Also, the Dmax under setting [2] is above 71%.

With `Cc1ncsc1-c1ccc([C@H](C)NC(=O)[C@@H]2C[C@@H](O)CN2C(=O)[C@@H](NC(=O)COCCN2CCN(c3ccc(C(=O)N[C@H]4C(C)(C)[C@H](Oc5ccc(C#N)c(Cl)c5)C4(C)C)cc3)CC2)C(C)(C)O)cc1` [Example 660, (2S,4R)-1-((S)-2-(2-(2-(4-(4-(((1r,3r)-3-(3-chloro-4-cyanophenoxy)-2,2,4,4-tetramethylcyclobutyl)carbamoyl)phenyl)piper-azin-1-yl)ethoxy)acetamido)-3-hydroxy-3-methylbutanoyl)-4-hydroxy-N-((S)-1-(4-(4-methylthiazol-5-yl)phenyl)ethyl)pyrrolidine-2-carboxamide], the DC50 under setting [1] is above 501 nM. The Dmax under setting [3] lay within 26 to 50%.

Regarding `Cc1ncsc1-c1ccc(C(C)NC(=O)C2CC(O)CN2C(=O)C(NC(=O)COCCCOCCCCCOc2ccc(N3C(=S)N(c4ccc(C#N)c(C(F)(F)F)c4)C(=O)C3(C)C)cc2)C2COC2)cc1` (centres unmarked) [Example 661, 1-(2-(2-(3-((5-(4-(3-(4-cyano-3-(trifluoromethyl)phenyl)-5,5-dimethyl-4-oxo-2-thioxoimidazolidin-1-yl)phenoxy)pentyl)oxy)propoxy)acetamido)-2-(oxetan-3-yl)acetyl)-4-hydroxy-N-(1-(4-(4-methylthiazol-5-yl)phenyl)ethyl)pyrrolidine-2-carboxamide], the Dmax (VCaP, read-out: VCaP Dmax (%)) is below 25%. In addition, under setting [4], the DC50 was above 501 nM.

Turning to `Cc1cn(-c2ccc([C@H](C)NC(=O)[C@@H]3C[C@@H](O)CN3C(=O)[C@@H](NC(=O)COCCCOCCCCCOc3ccc(N4C(=S)N(c5ccc(C#N)c(C(F)(F)F)c5)C(=O)C4(C)C)cc3)C(C)(C)C)cc2)cn1` [Example 663, (2S,4R)-1-((S)-2-(2-(3-((5-(4-(3-(4-cyano-3-(trifluoromethyl)phenyl)-5,5-dimethyl-4-oxo-2-thioxoimidazolidin-1-yl)phenoxy)pentyl)oxy)propoxy)acetamido)-3,3-dimethylbutanoyl)-4-hydroxy-N-((S)-1-(4-(4-methyl-1H-imidazol-1-yl)phenyl)ethyl)pyrrolidine-2-carboxamide], where the note is “VCaP, read-out: VCaP Dmax (%)”, the Dmax was below 25%. Further, the DC50 under setting [4] was above 501 nM.

As for `Cc1ncsc1-c1ccc([C@H](C)NC(=O)[C@@H]2C[C@@H](O)CN2C(=O)[C@@H](NC(=O)[C@H](C)OCCN2CCN(c3ccc(C(=O)N[C@H]4C(C)(C)[C@H](Oc5ccc(C#N)c(Cl)c5)C4(C)C)cc3)CC2)C(C)(C)C)cc1` [Example 664, (2S,4R)-1-((S)-2-((S)-2-(2-(4-(4-(((1r,3r)-3-(3-chloro-4-cyanophenoxy)-2,2,4,4-tetramethylcyclobutyl)carbamoyl)phenyl)piper-azin-1-yl)ethoxy)propanamido)-3,3-dimethylbutanoyl)-4-hydroxy-N-((S)-1-(4-(4-methylthiazol-5-yl)phenyl)ethyl)pyrrolidine-2-carboxamide], the DC50 under setting [1] was below 50 nM. In addition, under setting [3], the Dmax was 51 to 70%.

As for `Cc1ncsc1-c1ccc([C@H](C)NC(=O)[C@@H]2C[C@@H](O)CN2C(=O)[C@@H](NC(=O)CN2CCN(CCCc3ccc(C(=O)N[C@H]4C(C)(C)[C@H](Oc5ccc(C#N)c(C(F)(F)F)c5)C4(C)C)cc3)CC2)C(C)(C)C)cc1` [Example 665, (2S,4R)-1-((S)-2-(2-(4-(3-(4-(((1r,3r)-3-(4-cyano-3-(trifluoromethyl)phenoxy)-2,2,4,4-tetramethylcyclobutyl)carbamoyl)phenyl)propyl)piperazin-1-yl)acetamido)-3,3-dimethylbutanoyl)-4-hydroxy-N-((S)-1-(4-(4-methylthiazol-5-yl)phenyl)ethyl)pyrrolidine-2-carboxamide], the DC50 under setting [1] is below 50 nM. The Dmax under setting [2] is 51 to 70%.

Turning to `Cc1ncsc1-c1ccc([C@H](C)NC(=O)[C@@H]2C[C@@H](O)CN2C(=O)[C@@H](NC(=O)COCCCCCNC23CC(C(=O)N[C@H]4C(C)(C)[C@H](Oc5ccc(C#N)c(Cl)c5)C4(C)C)(C2)C3)C(C)(C)C)cc1` [Example 666, (2S,4R)-1-((S)-2-(2-((5-((3-(((1r,3r)-3-(3-chloro-4-cyanophenoxy)-2,2,4,4-tetramethylcyclobutyl)carbamoyl)bicyclo[1.1.1]pentan-1-yl)amino)pentyl)oxy)acetamido)-3,3-dimethylbutanoyl)-4-hydroxy-N-((S)-1-(4-(4-methylthiazol-5-yl)phenyl)ethyl)pyrrolidine-2-carboxamide], under setting [1], the DC50 was above 501 nM. Under setting [2], the maximal degradation (Dmax) is 26 to 50%.

For `Cc1ncsc1-c1ccc([C@H](C)NC(=O)[C@@H]2C[C@@H](O)CN2C(=O)[C@@H](NC(=O)CN2CCO[C@@H](CN3CCO[C@@H](COc4ccc(N5C(=S)N(c6ccc(C#N)c(C(F)(F)F)c6)C(=O)C5(C)C)cc4)C3)C2)C(C)(C)C)cc1` [Example 667, (2S,4R)-1-((S)-2-(2-((S)-2-(((R)-2-((4-(3-(4-cyano-3-(trifluoromethyl)phenyl)-5,5-dimethyl-4-oxo-2-thioxoimidazolidin-1-yl)phenoxy)methyl)mor-pholino)methyl)mor-pholino)acetamido)-3,3-dimethylbutanoyl)-4-hydroxy-N-((S)-1-(4-(4-methylthiazol-5-yl)phenyl)ethyl)pyrrolidine-2-carboxamide], the Dmax (VCaP, read-out: VCaP Dmax (%)) was below 25%. Under setting [4], the DC50 is above 501 nM.

For `CC(NC(=O)C1CC(O)CN1C(=O)C(NC(=O)COCCN1CC2CC1CN2c1ccc(C(=O)NC2C(C)(C)C(Oc3ccc(C#N)c(Cl)c3)C2(C)C)cn1)C(C)(C)C)c1ccc(-c2scnc2CO)cc1` [Example 668, N-((1r,3R)-3-(3-chloro-4-cyanophenoxy)-2,2,4,4-tetramethylcyclobutyl)-6-((1R,4R)-5-(2-(2-(((S)-1-((2S,4R)-4-hydroxy-2-(((S)-1-(4-(4-(hydroxymethyl)thiazol-5-yl)phenyl)ethyl)carbam-oyl)pyrrolidin-1-yl)-3,3-dimethyl-1-oxobutan-2-yl)amino)-2-oxoethoxy)ethyl)-2,5-diazabicyclo[2.2.1]hept-an-2-yl)nicotinamide], the DC50 under setting [1] is 51 to 500 nM. Under setting [3], the Dmax lay in the range of 26 to 50%.

With `Cc1ncsc1-c1ccc(CNC(=O)[C@@H]2C[C@@H](O)CN2C(=O)[C@@H](NC(=O)COCCN2C[C@H]3C[C@@H]2CN3c2ccc(C(=O)N[C@H]3C(C)(C)[C@H](Oc4ccc(C#N)c(Cl)c4)C3(C)C)cn2)C(C)(C)C)cc1` [Example 669, N-((1r,3R)-3-(3-chloro-4-cyanophenoxy)-2,2,4,4-tetramethylcyclobutyl)-6-((1R,4R)-5-(2-(2-(((S)-1-((2S,4R)-4-hydroxy-2-((4-(4-methylthiazol-5-yl)benzyl)carbamoyl)pyrrolidin-1-yl)-3,3-dimethyl-1-oxobutan-2-yl)amino)-2-oxoethoxy)ethyl)-2,5-diazabicyclo[2.2.1]hept-an-2-yl)nicotinamide], the DC50 under setting [1] is below 50 nM. Further, the Dmax under setting [2] lay in the range of 51 to 70%.
